Where “and” joins values, the source holds several entries; their conditions need not be identical. Equal values may be shown once. Toxic doses and inconclusive results are not listed.
Test system: P388 leukemia ip, CD2F1 mice, survival T/C
Experiment: NCI In Vivo Anticancer Drug Screen. Data for tumor model P388 Leukemia (intraperitoneal) in CD2F1 (CDF1) mice
Settings: endpoint: median survival time, higher = longer survival
Outline: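 Mice carrying the transplanted tumor received test compound or vehicle. Survival was recorded in each group, and the value is the treated-group measurement divided by that of the vehicle-treated control group.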

[1] = dose: 100.0 mg/kg/injection, schedule: Q04DX003 (ip), vehicle: saline with Tween-80
[2] = dose: 200.0 mg/kg/injection, schedule: Q04DX003 (ip), vehicle: saline with Tween-80
[3] = dose: 400.0 mg/kg/injection, schedule: Q04DX003 (ip), vehicle: saline with Tween-80
[4] = dose: 100.0 mg/kg/injection, schedule: Q01DX009 (ip), vehicle: saline with Tween-80
[5] = dose: 200.0 mg/kg/injection, schedule: Q01DX009 (ip), vehicle: saline with Tween-80
[6] = dose: 400.0 mg/kg/injection, schedule: Q01DX009 (ip), vehicle: saline with Tween-80
[7] = dose: 50.0 mg/kg/injection, schedule: Q04DX003 (ip), vehicle: saline
[8] = dose: 100.0 mg/kg/injection, schedule: Q04DX003 (ip), vehicle: saline
[9] = dose: 200.0 mg/kg/injection, schedule: Q04DX003 (ip), vehicle: saline
[10] = dose: 50.0 mg/kg/injection, schedule: Q01DX005 (ip), vehicle: saline with Tween-80
[11] = dose: 100.0 mg/kg/injection, schedule: Q01DX005 (ip), vehicle: saline with Tween-80
[12] = dose: 200.0 mg/kg/injection, schedule: Q01DX005 (ip), vehicle: saline with Tween-80
[13] = dose: 60.0 mg/kg/injection, schedule: Q01DX005 (ip), vehicle: saline with Tween-80
[14] = dose: 120.0 mg/kg/injection, schedule: Q01DX005 (ip), vehicle: saline with Tween-80
[15] = dose: 50.0 mg/kg/injection, schedule: Q01DX009 (ip), vehicle: saline with Tween-80

## C(#Cc1c2ccccc2c(C#Cc2ccccc2)c2c1oc1c3ccccc3ccc12)c1ccccc1
[1]
  T/C: 97 % of control
[2]
  T/C: 97 % of control
[3]
  T/C: 92 % of control

## C1CN1c1nc(N2CC2)nc(N2CC2)n1
dose: 0.05 mg/kg/injection, schedule: Q01DX009 (ip), vehicle: saline
  T/C: 111 % of control
dose: 0.13 mg/kg/injection, schedule: Q01DX009 (ip), vehicle: saline
  T/C: 115 % of control
dose: 0.2 mg/kg/injection, schedule: Q01DX009 (ip), vehicle: saline
  T/C: 159 % of control
dose: 0.25 mg/kg/injection, schedule: Q01DX009 (ip), vehicle: saline
  T/C: 150 % of control and 169 % of control
dose: 0.4 mg/kg/injection, schedule: Q01DX009 (ip), vehicle: saline
  T/C: 235 % of control
dose: 0.5 mg/kg/injection, schedule: Q01DX009 (ip), vehicle: saline
  T/C: 106 % of control and 120 % of control and 246 % of control
dose: 1.0 mg/kg/injection, schedule: Q01DX009 (ip), vehicle: saline
  T/C: 88 % of control

## C=C(C)/C=C/S(=O)c1ccccc1 (stereo not given)
dose: 50.0 mg/kg/injection, schedule: Q01DX005 (ip), vehicle: Klucel (hydroxypropylcellulose) (HPC)
  T/C: 100 % of control
dose: 100.0 mg/kg/injection, schedule: Q01DX005 (ip), vehicle: Klucel (hydroxypropylcellulose) (HPC)
  T/C: 97 % of control
dose: 200.0 mg/kg/injection, schedule: Q01DX005 (ip), vehicle: Klucel (hydroxypropylcellulose) (HPC)
  T/C: 98 % of control

## [Cl][Hg][c]1cccc(I)c1N=Nc1ccccc1
dose: 2.5 mg/kg/injection, schedule: Q01DX009 (ip), vehicle: saline + alcohol
  T/C: 104 % of control
dose: 5.0 mg/kg/injection, schedule: Q01DX009 (ip), vehicle: saline + alcohol
  T/C: 94 % of control

## Nc1nc(N)nc(N)n1
[4]
  T/C: 106 % of control
[5]
  T/C: 107 % of control
[6]
  T/C: 99 % of control
dose: 800.0 mg/kg/injection, schedule: Q01DX009 (ip), vehicle: saline with Tween-80
  T/C: 96 % of control

## CCOP(=O)(N(CCCl)CCCl)N1CCc2ccccc2C1 (stereo not given)
dose: 12.5 mg/kg/injection, schedule: Q04DX003 (ip), vehicle: saline with Tween-80
  T/C: 103 % of control
dose: 25.0 mg/kg/injection, schedule: Q04DX003 (ip), vehicle: saline with Tween-80
  T/C: 98 % of control
dose: 50.0 mg/kg/injection, schedule: Q04DX003 (ip), vehicle: saline with Tween-80
  T/C: 103 % of control
[1]
  T/C: 110 % of control
[2]
  T/C: 112 % of control
[3]
  T/C: 119 % of control

## O=c1oc2c(O)c(O)cc3c(=O)oc4c(O)c(O)cc1c4c23
dose: 50.0 mg/kg/injection, schedule: Q01DX009 (ip), vehicle: other
  T/C: 121 % of control
[7]
  T/C: 100 % of control
dose: 100.0 mg/kg/injection, schedule: Q01DX009 (ip), vehicle: other
  T/C: 123 % of control
[8]
  T/C: 103 % of control
dose: 200.0 mg/kg/injection, schedule: Q01DX009 (ip), vehicle: other
  T/C: 117 % of control and 123 % of control
[9]
  T/C: 112 % of control
dose: 400.0 mg/kg/injection, schedule: Q01DX009 (ip), vehicle: other
  T/C: 102 % of control and 108 % of control

## CCOC(=O)N(C)O
[10]
  T/C: 105 % of control
[11]
  T/C: 107 % of control
[12]
  T/C: 100 % of control
dose: 400.0 mg/kg/injection, schedule: Q01DX005 (ip), vehicle: saline with Tween-80
  T/C: 100 % of control

## CCC1CN2CCc3cc(OC)c(OC)cc3C2C/C1=C/C(=O)O (stereo not given)
dose: 50.0 mg/kg/injection, schedule: Q01DX009 (ip), vehicle: suspension in saline
  T/C: 95 % of control
dose: 100.0 mg/kg/injection, schedule: Q01DX009 (ip), vehicle: suspension in saline
  T/C: 92 % of control

## CC(=O)OC1CC(O)C23COC(O)C1C2CC(O)C1(C)C3C(=O)CC2(C)C(c3ccoc3)CC3OC321 (stereo not given)
dose: 0.25 mg/kg/injection, schedule: Q01DX009 (ip), vehicle: Klucel (hydroxypropylcellulose) (HPC)
  T/C: 103 % of control
dose: 0.5 mg/kg/injection, schedule: Q01DX009 (ip), vehicle: Klucel (hydroxypropylcellulose) (HPC)
  T/C: 99 % of control
dose: 1.0 mg/kg/injection, schedule: Q01DX009 (ip), vehicle: Klucel (hydroxypropylcellulose) (HPC)
  T/C: 111 % of control
dose: 2.0 mg/kg/injection, schedule: Q01DX009 (ip), vehicle: Klucel (hydroxypropylcellulose) (HPC)
  T/C: 90 % of control

## COc1cc2c(c(OC)c1OC)-c1ccc(SC)c(=O)cc1[C@@H](NC1OC(CO)C(O)C(O)C1O)CC2 (stereo not given in full)
dose: 3.12 mg/kg/injection, schedule: Q01DX009 (ip), vehicle: saline
  T/C: 107 % of control and 111 % of control
dose: 3.13 mg/kg/injection, schedule: Q01DX009 (ip), vehicle: saline
  T/C: 115 % of control
dose: 6.25 mg/kg/injection, schedule: Q01DX009 (ip), vehicle: saline
  T/C: 118 % of control [middle of 4 runs]
dose: 12.5 mg/kg/injection, schedule: Q01DX009 (ip), vehicle: saline
  T/C: 123 % of control
dose: 25.0 mg/kg/injection, schedule: Q01DX009 (ip), vehicle: saline
  T/C: 118 % of control and 122 % of control

## Cc1nc2cc(N)c(Cl)cc2[nH]1
[13]
  T/C: 104 % of control
[14]
  T/C: 107 % of control

## NNc1ncc(S(=O)(=O)Cc2ccc3c(c2)OCO3)c(N)n1
dose: 100.0 mg/kg/injection, schedule: Q01DX001 (ip), vehicle: saline
  T/C: 101 % of control
dose: 200.0 mg/kg/injection, schedule: Q01DX001 (ip), vehicle: saline
  T/C: 98 % of control
dose: 400.0 mg/kg/injection, schedule: Q01DX001 (ip), vehicle: saline
  T/C: 98 % of control

## OC1(C(O)(c2ccc(-c3ccccc3)cc2)c2ccc(-c3ccccc3)cc2)CC=CCC1 (stereo not given)
[13]
  T/C: 105 % of control
[14]
  T/C: 92 % of control
dose: 240.0 mg/kg/injection, schedule: Q01DX005 (ip), vehicle: saline with Tween-80
  T/C: 90 % of control

## C=CC1(C)CC(O)C2C(C)C(=O)OC2C1C(=C)C (stereo not given)
[4]
  T/C: 100 % of control
[5]
  T/C: 100 % of control
[6]
  T/C: 100 % of control

## CCCCC(SC(CC)(C(N)=O)c1ccccc1)C(=O)O (stereo not given)
[15]
  T/C: 108 % of control
[4]
  T/C: 105 % of control
[5]
  T/C: 106 % of control
[6]
  T/C: 97 % of control

## C/C=C/N=NNc1ccccc1
dose: 100.0 mg/kg/injection, schedule: Q04DX003 (ip), vehicle: saline + Tween-80 + alcohol
  T/C: 111 % of control
dose: 200.0 mg/kg/injection, schedule: Q04DX003 (ip), vehicle: saline + Tween-80 + alcohol
  T/C: 112 % of control
dose: 400.0 mg/kg/injection, schedule: Q04DX003 (ip), vehicle: saline + Tween-80 + alcohol
  T/C: 106 % of control

## Cc1cc2cc(C)c3c(Cl)nnc(Cl)c3c2o1
[10]
  T/C: 106 % of control
[11]
  T/C: 103 % of control
[12]
  T/C: 100 % of control

## CC(C)(C)N=C(CCN1CCCCC1)Nc1ccccc1Cl
[15]
  T/C: 116 % of control
[4]
  T/C: 106 % of control
[5]
  T/C: 102 % of control

## CC1CC(=O)NC(N)=N1 (stereo not given)
dose: 50.0 mg/kg/injection, schedule: Q01DX005 (ip), vehicle: saline
  T/C: 98 % of control
dose: 100.0 mg/kg/injection, schedule: Q01DX005 (ip), vehicle: saline
  T/C: 108 % of control
dose: 200.0 mg/kg/injection, schedule: Q01DX005 (ip), vehicle: saline
  T/C: 104 % of control

## COC1(OC)C2C=CC1CC2
[15]
  T/C: 107 % of control and 116 % of control
[4]
  T/C: 101 % of control
[5]
  T/C: 109 % of control

## O=c1[nH]cnc2c1ccc1[nH]ncc12
dose: 6.25 mg/kg/injection, schedule: Q01DX005 (ip), vehicle: saline with Tween-80
  T/C: 88 % of control
dose: 12.5 mg/kg/injection, schedule: Q01DX005 (ip), vehicle: saline with Tween-80
  T/C: 90 % of control
dose: 25.0 mg/kg/injection, schedule: Q01DX005 (ip), vehicle: saline with Tween-80
  T/C: 86 % of control
[10]
  T/C: 97 % of control
[11]
  T/C: 99 % of control

## CCCCCCCC/C=C/CCCCCCCC(=O)N(CCOC(=O)C(C)(C)C)CCOC(=O)C(C)(C)C
dose: 50.0 mg/kg/injection, schedule: Q01DX009 (ip), vehicle: Klucel (hydroxypropylcellulose) (HPC)
  T/C: 104 % of control
dose: 100.0 mg/kg/injection, schedule: Q01DX009 (ip), vehicle: Klucel (hydroxypropylcellulose) (HPC)
  T/C: 112 % of control
dose: 200.0 mg/kg/injection, schedule: Q01DX009 (ip), vehicle: Klucel (hydroxypropylcellulose) (HPC)
  T/C: 111 % of control

## CC(=O)O/N=C/c1ccccn1
dose: 25.0 mg/kg/injection, schedule: Q04DX003 (ip), vehicle: saline
  T/C: 94 % of control
[7]
  T/C: 89 % of control and 94 % of control
[8]
  T/C: 100 % of control
[9]
  T/C: 98 % of control and 100 % of control

## Cc1ccc(Oc2ccc([N+](=O)[O-])c3[nH]c4ccccc4c(=O)c23)cc1
[15]
  T/C: 94 % of control
[4]
  T/C: 111 % of control
[5]
  T/C: 113 % of control

## CC(=O)NN=C(c1ccccc1)c1ccccc1
[15]
  T/C: 100 % of control
[4]
  T/C: 100 % of control
[5]
  T/C: 100 % of control

— PubChem BioAssay AID330 (DTP/NCI, 2004)
